Test results published in patent US6346543B1, “Use of a taxoid to treat abnormal cell proliferation in the brain” (priority 1998, dated 2002).
“And” between values parts separate entries of the source, which are not always exact repeats. Identical values can stand only once.

Assay: Single i.v. bolus pharmacokinetic study in mice: plasma and brain levels by LC-MS/MS
Type: in vivo, female C3H/HeN mice
Conditions: mouse; for Plasma product (Ic) concentration: individual animals IV1-IV4
Method: Analytical Results Obtained from a Single i.v. Bolus Pharmacokinetic Study in Mice.
Groups of female C3H/HeN mice received the product by an intravenous route as a bolus at a dose level of 40 mg.kg^−1, equivalent to 120 mg.m^−2. Blood and brain samples were obtained from all dosed animals sacrificed at intervals up to 72 hours post dose. Brain and corresponding plasma samples were assayed for product (Ia) content by an LC-MS/MS assay.
2.25 mg.ml^−1 solution containing 5% Polysorbate 80, 5% ethanol, and 90% of an aqueous 5% glucose solution.
Fifty-six female C3H/HeN mice, each weighing ca 20 g, were each administered formulated product II by i.v. bolus via the tail vein at an injection volume of 0.4 ml to give a total dose of 40 mg.kg^−1.
Blood by cardiac puncture, and liver and brain by dissection after CO2 sacrifice.
Whole blood was collected in heparinised tubes, and corresponding plasma samples were obtained by centrifugation, and frozen immediately at −20° C. Tissues were blotted, weighed, and frozen immediately at −20° C. All samples were dispatched frozen for analysis. Upon receipt, samples were stored frozen at approximately −18° C. pending analysis.
LC-MS/MS (Sciex API III plus) in turbo-ionspray mode.
75×4.6 mm Supelcosil ABZ plus (3 μm).
Acetonitrile/methanol/ammonium acetate (10 mM); 40/25/35 v/v/v.
Plasma: Added 100 μl of acetonitrile to sample (50 μl). Vortexed, centrifuged, removed supernatant, added 100 μl of mobile phase and injected 150 μl .
Brain: Added 100 μl of acetonitrile to homogenised sample (100 mg of a 1:1 w/w brain with water homogenate) and vortexed. Added 1 ml of diethyl ether, vortexed, centrifuged, removed organic layer, and dried under N2. Reconstituted in 200 μl of mobile phase and injected 150 μl.
Plasma: Nine at concentrations of 5, 10, 20, 50, 100, 200, 300, 400 & 500 ng.ml^−1 (product Ia). Prepared by adding suitable aliquots of the product (concentrations =0.1, 1 or 10 μg.ml^−1) in ethanol to 0.5 ml aliquots of mouse plasma. Each sample was vortexed following drug addition; a 50 μl aliquot was then removed for assay.
Brain: Eleven at concentrations of 10, 20, 30, 100, 200, 300, 400, 500, 1000, 2500 & 5000 ng.g^−1 in homogenised mouse brain (1:1 w/w brain with water). Prepared by adding suitable aliquots of the product (concentrations=1, 10 or 100 μg.ml-^−1) in ethanol to 0.5, 1, 3 or 4 g of homogenised mouse brain. Each sample was vortexed following drug addition and a 100 mg aliquot was then removed for assay.
A biexponential equation was fitted to the profiles using an interactive linear least-square algorithm as part of the SIPHAR package.

[1] = plasma, i.v. 40 mg.kg^−1, calculated from values ≧b.l.q. of 20 ng.ml^−1
[2] = plasma, i.v. 40 mg.kg^−1, calculated from values ≧l.o.d. of 4 ng.ml^−1

For `CO[C@H]1C(=O)[C@]2(C)[C@@H](OC)C[C@H]3OC[C@@]3(OC(C)=O)[C@H]2[C@H](OC(=O)c2ccccc2)[C@]2(O)C[C@H](OC(=O)[C@H](O)[C@@H](NC(=O)OC(C)(C)C)c3ccccc3)C(C)=C1C2(C)C` [Product (Ia), 4α-acetoxy-2α-benzoyloxy-5β, 20-epoxy-1β-hydroxy-7β, 10β-dimethoxy-9-oxo-11-taxen-13α-yl (2R,3S)-3 tert-butoxycarbonylamino-2-hydroxy-3-phenylpropionate], the AUC0-72h (brain, i.v. 40 mg.kg^−1) was “*the corresponding AUC0-72h = 549.7 h.μg.g^−1”, the “Terminal T½” value (brain, i.v. 40 mg.kg^−1) was 31.4 h and the “AUC0-∞” value (brain, i.v. 40 mg.kg^−1, mean data, extrapolated from 72 h, listed as product (Ic)) was 787.g* h.μg.g^−1. For the same compound, the “Mean total plasma clearance” value (i.v. 40 mg.kg^−1) was 1.3 I.h^−1.kg^−1, the “levels in the brain relative to those in the plasma (on the basis of AUC0∞ values)” value (i.v. 40 mg.kg^−1) was “about twenty” and the “time post dose up to which plasma levels persisted above the limit of accurate quantification (20 ng.ml^−1)” value (i.v. 40 mg.kg^−1) was “up to 14 h”. For the same compound, the “time post dose up to which plasma levels were consistently above the limit of detection (4 ng.ml^−1)” value (i.v. 40 mg.kg^−1) was “up to 24 h”, the “Plasma product (Ic) concentration” value (i.v. 40 mg.kg^−1, 2 min after dose) was 52987 ng/mL and 45942 ng/mL and 49607 ng/mL and 38994 ng/mL and the “Plasma product (Ic) concentration, MEAN” value (i.v. 40 mg.kg^−1, 2 min after dose, mean of IV1-IV4) was 46882 ng/mL. For the same compound, the “Plasma product (Ic) concentration” value (i.v. 40 mg.kg^−1, 5 min after dose) was 36734 ng/mL and 33538 ng/mL and 32077 ng/mL and 34903 ng/mL, the “Plasma product (Ic) concentration, MEAN” value (i.v. 40 mg.kg^−1, 5 min after dose, mean of IV1-IV4) was 34313 ng/mL and the “Plasma product (Ic) concentration” value (i.v. 40 mg.kg^−1, 15 min after dose) was 20493 ng/mL and 20897 ng/mL and 21051 ng/mL and 19459 ng/mL. For the same compound, the “Plasma product (Ic) concentration, MEAN” value (i.v. 40 mg.kg^−1, 15 min after dose, mean of IV1-IV4) was 20475 ng/mL, the “Plasma product (Ic) concentration” value (i.v. 40 mg.kg^−1, 0.5 h after dose) was 10765 ng/mL and 10344 ng/mL and 9170 ng/mL and 11232 ng/mL and the “Plasma product (Ic) concentration, MEAN” value (i.v. 40 mg.kg^−1, 0.5 h after dose, mean of IV1-IV4) was 10378 ng/mL. For the same compound, the “Plasma product (Ic) concentration” value (i.v. 40 mg.kg^−1, 0.75 h after dose) was 7133 ng/mL and 10948 ng/mL and 8121 ng/mL and 10148 ng/mL, the “Plasma product (Ic) concentration, MEAN” value (i.v. 40 mg.kg^−1, 0.75 h after dose, mean of IV1-IV4) was 9087 ng/mL and the “Plasma product (Ic) concentration” value (i.v. 40 mg.kg^−1, 1 h after dose) was 6017 ng/mL and 7423 ng/mL and 6693 ng/mL and 6079 ng/mL. The “Plasma product (Ic) concentration, MEAN” value (i.v. 40 mg.kg^−1, 1 h after dose, mean of IV1-IV4) was 6553 ng/mL, the “Plasma product (Ic) concentration” value (i.v. 40 mg.kg^−1, 4 h after dose) was 1072 ng/mL and 1110 ng/mL and 835 ng/mL and 830 ng/mL and the “Plasma product (Ic) concentration, MEAN” value (i.v. 40 mg.kg^−1, 4 h after dose, mean of IV1-IV4) was 962 ng/mL. The “Plasma product (Ic) concentration” value (i.v. 40 mg.kg^−1, 6 h after dose) was 449 ng/mL and 316 ng/mL and 346 ng/mL and 336 ng/mL, the “Plasma product (Ic) concentration, MEAN” value (i.v. 40 mg.kg^−1, 6 h after dose, mean of IV1-IV4) was 362 ng/mL and the “Plasma product (Ic) concentration” value (i.v. 40 mg.kg^−1, 8 h after dose) was 204 ng/mL and 199 ng/mL and 195 ng/mL and 154 ng/mL. For the same compound, the “Plasma product (Ic) concentration, MEAN” value (i.v. 40 mg.kg^−1, 8 h after dose, mean of IV1-IV4) was 188 ng/mL, the “Plasma product (Ic) concentration” value (i.v. 40 mg.kg^−1, 14 h after dose) was 65 ng/mL and 56 ng/mL and 50 ng/mL and 52 ng/mL and the “Plasma product (Ic) concentration, MEAN” value (i.v. 40 mg.kg^−1, 14 h after dose, mean of IV1-IV4) was 56 ng/mL. The “Plasma product (Ic) concentration” value (i.v. 40 mg.kg^−1, 24 h after dose, blq = below limit of accurate quantification (20 ng.ml^−1)) was ~18(blq) ng.ml^−1 and ~15(blq) ng.ml^−1 (2×) and ~16(blq) ng.ml^−1, the “Plasma product (Ic) concentration, MEAN” value (i.v. 40 mg.kg^−1, 24 h after dose, mean of IV1-IV4 (all blq)) was 16 ng/mL and the “Plasma product (Ic) concentration” value (i.v. 40 mg.kg^−1, 48 h after dose, n.d. = not detected (≦l.o.d. of 4 ng.ml^−1)) was ~4(blq) ng.ml^−1. The “Plasma product (Ic) concentration, MEAN” value (i.v. 40 mg.kg^−1, 48 h after dose, mean of IV1-IV4 (blq / n.d.)) was 2 ng/mL, the “brain level, peak” value (i.v. 40 mg.kg^−1, at 14 h) was 9.1 µg/g and the brain level (i.v. 40 mg.kg^−1, last sampling time, 72 h) was 5.3 µg/g. For the same compound, the “plasma level, peak (mean)” value (i.v. 40 mg.kg^−1, peak at 2 minutes) was 46900 ng/mL, the “Plasma product (Ic) concentration” value (i.v. 40 mg.kg^−1, time after dose printed as — (between 1 h and 4 h)) was 4633 ng/mL and 4337 ng/mL and 4600 ng/mL and 3564 ng/mL and the “Plasma product (Ic) concentration, MEAN” value (i.v. 40 mg.kg^−1, time after dose printed as — (between 1 h and 4 h), mean of IV1-IV4) was 4283 ng/mL. For the same compound, the plasma level (i.v. 40 mg.kg^−1, within 4 h) was “less than 1 μg.ml^−1”, the “penetration of the blood brain barrier” value (post-i.v. administration) was “appeared to readily penetrate the blood brain barrier” and the “ClT (total plasma clearance)” value [1] was 1.3 1.h^−1.kg^−1. The “Initial T½” value [1] was 0.2 h, the “Terminal T½” value [1] was 2.0 h and the Vdss [1] was 2.4 1.kg^−1. The “ClT (total plasma clearance)” value [2] was 1.3 1.h^−1.kg^−1, the “Initial T½” value [2] was 0.7 h and the “Terminal T½” value [2] was 6.2 h. The Vdss [2] was 1.9 1.kg^−1.
